According to ChEMBL document CHEMBL4270560, “Novel curcumin analogue hybrids: Synthesis and anticancer activity” (Eur J Med Chem, 2018):
Active and inactive are the calls of the source. No cut-off for these calls is given here.

How the values were obtained:
SGC-7901 [1] = experiment: Induction of apoptosis in human SGC7901 cells assessed as late apoptotic cells at 1000 nM after 48 hrs in presence of NAC by Annexin V-FITC/propidium iodide staining based flow cytometric analysis (reference value: 2.85%); assay type: functional
SGC-7901 [2] = experiment: Cell cycle arrest in human SGC7901 cells assessed as accumulation at G2 phase at 1000 nM after 48 hrs by propidium iodide staining based flow cytometric analysis (reference value: 18.77%); assay type: functional
SGC-7901 [3] = experiment: Induction of apoptosis in human SGC7901 cells assessed as early apoptotic cells at 800 nM after 48 hrs by Annexin V-FITC/propidium iodide staining based flow cytometric analysis (reference value: 2.30%); assay type: functional
SMMC-7721 = experiment: Antiproliferative activity against human SMMC7721 cells after 48 hrs by MTT assay; assay type: functional, cell-based; conditions: SMMC-7721, 48 h
SGC-7901 [4] = experiment: Induction of apoptosis in human SGC7901 cells assessed as early apoptotic cells at 1200 nM after 48 hrs by Annexin V-FITC/propidium iodide staining based flow cytometric analysis (reference value: 0.851 to 2.30%); assay type: functional
SGC-7901 [5] = experiment: Induction of apoptosis in human SGC7901 cells assessed as late apoptotic cells at 1200 nM after 48 hrs by Annexin V-FITC/propidium iodide staining based flow cytometric analysis (reference value: 1.73 to 2.85%); assay type: functional
SGC-7901 [6] = experiment: Induction of mitochondrial membrane depolarization in human SGC7901 cells assessed as cells with intact mitochondrial membrane potential at 1200 nM after 48 hrs by JC-1 staining based flow cytometric analysis (reference value: 87.3 to 98%); assay type: functional
SGC-7901 [7] = experiment: Induction of mitochondrial membrane depolarization in human SGC7901 cells assessed as cells with intact mitochondrial membrane potential at 1200 nM after 48 hrs in presence of NAC by JC-1 staining based flow cytometric analysis (reference value: 98%); assay type: functional
SGC-7901 [8] = experiment: Cell cycle arrest in human SGC7901 cells assessed as accumulation at G2 phase at 1200 nM after 48 hrs by propidium iodide staining based flow cytometric analysis (reference value: 18.77%); assay type: functional
SGC-7901 [9] = experiment: Cell cycle arrest in human SGC7901 cells assessed as accumulation at G1 phase at 800 nM after 48 hrs by propidium iodide staining based flow cytometric analysis (reference value: 47.93%); assay type: functional
SGC-7901 [10] = experiment: Induction of apoptosis in human SGC7901 cells assessed as viable cells at 1000 nM after 48 hrs in presence of NAC by Annexin V-FITC/propidium iodide staining based flow cytometric analysis (reference value: 96%); assay type: functional; conditions: SGC-7901, 48 h, read-out: Activity
SGC-7901 [11] = experiment: Induction of apoptosis in human SGC7901 cells assessed as late apoptotic cells at 1000 nM after 48 hrs by Annexin V-FITC/propidium iodide staining based flow cytometric analysis (reference value: 1.73 to 2.85%); assay type: functional
SGC-7901 [12] = experiment: Induction of apoptosis in human SGC7901 cells assessed as viable cells at 1000 nM after 48 hrs by Annexin V-FITC/propidium iodide staining based flow cytometric analysis (reference value: 95.9 to 96%); assay type: functional; conditions: SGC-7901, 48 h, read-out: Activity
SGC-7901 [13] = experiment: Induction of apoptosis in human SGC7901 cells assessed as necrotic cells at 1000 nM after 48 hrs in presence of NAC by Annexin V-FITC/propidium iodide staining based flow cytometric analysis (reference value: 0.304%); assay type: functional
MGC-803 = experiment: Antiproliferative activity against human MGC803 cells after 48 hrs by MTT assay; assay type: functional, cell-based; conditions: MGC-803, 48 h
SGC-7901 [14] = experiment: Induction of mitochondrial membrane depolarization in human SGC7901 cells assessed as cells with mitochondrial membrane potential loss at 1000 nM after 48 hrs in presence of NAC by JC-1 staining based flow cytometric analysis (reference value: 1.65%); assay type: functional
SGC-7901 [15] = experiment: Induction of apoptosis in human SGC7901 cells assessed as necrotic cells at 1200 nM after 48 hrs in presence of NAC by Annexin V-FITC/propidium iodide staining based flow cytometric analysis (reference value: 0.304%); assay type: functional
SGC-7901 [16] = experiment: Induction of apoptosis in human SGC7901 cells assessed as late apoptotic cells at 600 nM after 48 hrs by Annexin V-FITC/propidium iodide staining based flow cytometric analysis (reference value: 1.73%); assay type: functional
SGC-7901 [17] = experiment: Induction of mitochondrial membrane depolarization in human SGC7901 cells assessed as cells with intact mitochondrial membrane potential at 1000 nM after 48 hrs by JC-1 staining based flow cytometric analysis (reference value: 87.3%); assay type: functional
SGC-7901 [18] = experiment: Induction of apoptosis in human SGC7901 cells assessed as decrease in PARP level at 600 to 1200 nM after 48 hrs by Western blot analysis; assay type: functional, cell-based
SGC-7901 [19] = experiment: Induction of mitochondrial membrane depolarization in human SGC7901 cells assessed as cells with mitochondrial membrane potential loss at 1200 nM after 48 hrs in presence of NAC by JC-1 staining based flow cytometric analysis (reference value: 1.65%); assay type: functional
SGC-7901 [20] = experiment: Antiproliferative activity against human SGC7901 cells after 48 hrs by MTT assay; assay type: functional, cell-based; conditions: SGC-7901, 48 h
SGC-7901 [21] = experiment: Cell cycle arrest in human SGC7901 cells assessed as accumulation at G1 phase at 1000 nM after 48 hrs by propidium iodide staining based flow cytometric analysis (reference value: 47.93%); assay type: functional
SGC-7901 [22] = experiment: Induction of apoptosis in human SGC7901 cells assessed as increase in Bax to Bcl-2 ratio level at 1200 nM after 48 hrs in presence of NAC by Western blot analysis; assay type: functional, cell-based
SGC-7901 [23] = experiment: Cell cycle arrest in human SGC7901 cells assessed as accumulation at G1 phase at 1200 nM after 48 hrs by propidium iodide staining based flow cytometric analysis (reference value: 47.93%); assay type: functional
SGC-7901 [24] = experiment: Induction of apoptosis in human SGC7901 cells assessed as early apoptotic cells at 600 nM after 48 hrs by Annexin V-FITC/propidium iodide staining based flow cytometric analysis (reference value: 2.30%); assay type: functional
SGC-7901 [25] = experiment: Induction of apoptosis in human SGC7901 cells assessed as necrotic cells at 600 nM after 48 hrs by Annexin V-FITC/propidium iodide staining based flow cytometric analysis (reference value: 0.052%); assay type: functional
SGC-7901 [26] = experiment: Cell cycle arrest in human SGC7901 cells assessed as accumulation at G2 phase at 600 nM after 48 hrs by propidium iodide staining based flow cytometric analysis (reference value: 18.77%); assay type: functional
[27] = molecular target: T1, Thioredoxin reductase (Homo sapiens) (UniProt Q16881+Q9NNW7+Q86VQ6); experiment: Inhibition of TrxR in human SGC7901 cells assessed as p38 phosphorylation at 600 to 1200 nM after 48 hrs by Western blot analysis; assay type: cell-based
[28] = molecular target: T1, Thioredoxin reductase (Homo sapiens); experiment: Inhibition of TrxR in human SGC7901 cells assessed as JNK phosphorylation at 1200 nM after 48 hrs in presence of NAC by Western blot analysis; assay type: cell-based
SGC-7901 [29] = experiment: Induction of apoptosis in human SGC7901 cells assessed as late apoptotic cells at 800 nM after 48 hrs by Annexin V-FITC/propidium iodide staining based flow cytometric analysis (reference value: 1.73%); assay type: functional

Compound: COc1cc(OC)c2c(=O)c(OCCCOc3ccccc3/C=C/C(=O)/C=C/c3ccccn3)c(-c3cc(OC)c(OC)c(OC)c3)oc2c1
- Activity (SGC-7901 [1]): 2.84%
- Activity (SGC-7901 [2]): 10.44%
- Activity (SGC-7901 [3]): 24.5%
- IC50 (SMMC-7721): 3.18 µM
- Activity (SGC-7901 [4]): 29.8 - 55.2%
- Activity (SGC-7901 [5]): 20.1 - 24.9%
- Activity (SGC-7901 [6]): 35.4 - 40.2%
- Activity (SGC-7901 [7]): 97.5%
- Activity (SGC-7901 [8]): 17.95%
- Activity (SGC-7901 [9]): 51.29%
- viability at 1 µM (SGC-7901 [10]): 94.1%
- Activity (SGC-7901 [11]): 7.92 - 24.2%
- viability at 1 µM (SGC-7901 [12]): 50.1 to 59.6%
- Activity (SGC-7901 [13]): 0.92%
- IC50 (MGC-803): 0.56 µM
- Activity (SGC-7901 [14]): 2.32%
- Activity (SGC-7901 [15]): 0.225%
- Activity (SGC-7901 [16]): 6.4%
- Activity (SGC-7901 [17]): 56.3%
- Activity (SGC-7901 [18]): Active
- Activity (SGC-7901 [19]): 1.74%
- IC50 (SGC-7901 [20]): 1.08 µM
- Activity (SGC-7901 [21]): 55.28%
- Activity (SGC-7901 [22]): inactive
- Activity (SGC-7901 [23]): 45.78%
- Activity (SGC-7901 [24]): 5.79%
- Activity (SGC-7901 [25]): 0.132%
- Activity (SGC-7901 [26]): 15.61%
- inhibition [27]: Active
- inhibition [28]: inactive
- Activity (SGC-7901 [29]): 8.3%
